Measurements taken from paper PMC11331448 (Journal of chemical information and modeling, 2024).

Target: BChE (Homo sapiens, UniProt P06276)
Conditions: BChE versus AChE inhibition, colorimetric kits

Sequence of BChE (P06276 29-602, species assumed): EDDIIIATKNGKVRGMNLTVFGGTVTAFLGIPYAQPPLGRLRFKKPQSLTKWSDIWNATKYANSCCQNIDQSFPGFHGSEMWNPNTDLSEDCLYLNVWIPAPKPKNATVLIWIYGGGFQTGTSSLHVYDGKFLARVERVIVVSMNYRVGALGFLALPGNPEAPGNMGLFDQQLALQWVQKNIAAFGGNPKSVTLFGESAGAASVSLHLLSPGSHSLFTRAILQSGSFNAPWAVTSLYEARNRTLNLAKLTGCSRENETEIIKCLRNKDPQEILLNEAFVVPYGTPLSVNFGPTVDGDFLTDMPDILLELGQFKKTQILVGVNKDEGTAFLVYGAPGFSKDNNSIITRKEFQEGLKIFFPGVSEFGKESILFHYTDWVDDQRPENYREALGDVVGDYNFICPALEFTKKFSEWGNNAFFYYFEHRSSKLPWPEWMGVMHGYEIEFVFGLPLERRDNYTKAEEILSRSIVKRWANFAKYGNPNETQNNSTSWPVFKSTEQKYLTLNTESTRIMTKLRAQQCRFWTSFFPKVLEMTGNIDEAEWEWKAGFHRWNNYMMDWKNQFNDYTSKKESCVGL

OC(CN1CCCCC1)c1c[nH]c2ccccc12 (stereo not shown) [CPI7075, 1-(1H-indol-3-yl)-2-(piperidin-1-yl)ethanol]
BChE selectivity in vitro: selective BChE inhibitors
